PubChem BioAssay (NCI)
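Grown in 96-well plates, cells were treated for 48 hours with each compound at five concentrations. Insufficient inhibition: endpoint recorded as highest concentration tested. The concentration for full growth arrest is given as TGI.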

Columns and labels:
Assay in all cases: growth of human tumour cells (NCI), 48 h
MDA-MB-435 = test system: MDA-MB-435
SK-MEL-2 melanoma = test system: SK-MEL-2 melanoma
MDA-N = test system: MDA-N
EKVX NSCLC = test system: EKVX NSCLC
UACC-257 melanoma = test system: UACC-257 melanoma
IGROV1 ovarian = test system: IGROV1 ovarian
NCI-H23 lung = test system: NCI-H23 lung
BT-549 breast = test system: BT-549 breast
KM12 colon = test system: KM12 colon
SK-MEL-28 melanoma = test system: SK-MEL-28 melanoma
SNB-75 CNS = test system: SNB-75 CNS
PC-3 prostate = test system: PC-3 prostate
A549 NSCLC = test system: A549 NSCLC
HL-60(TB) leukemia = test system: HL-60(TB) leukemia
ACHN renal = test system: ACHN renal
NCI/ADR-RES ovarian = test system: NCI/ADR-RES ovarian
SF-268 CNS = test system: SF-268 CNS

| Structure (SMILES) | TGI (MDA-MB-435) | TGI (SK-MEL-2 melanoma) | TGI (MDA-N) | TGI (EKVX NSCLC) | TGI (UACC-257 melanoma) | TGI (IGROV1 ovarian) | TGI (NCI-H23 lung) | TGI (BT-549 breast) | TGI (KM12 colon) | TGI (SK-MEL-28 melanoma) | TGI (SNB-75 CNS) | TGI (PC-3 prostate) | TGI (A549 NSCLC) | TGI (HL-60(TB) leukemia) | TGI (ACHN renal) | TGI (NCI/ADR-RES ovarian) | TGI (SF-268 CNS) |
| --- | --- | --- | --- | --- | --- | --- | --- | --- | --- | --- | --- | --- | --- | --- | --- | --- | --- |
| NC(=S)NS(=O)(=O)c1ccc(F)cc1 | > 100 µM | > 100 µM | > 100 µM | > 100 µM | > 100 µM | > 100 µM | > 100 µM | > 100 µM | > 100 µM | > 100 µM | > 100 µM | > 100 µM | > 100 µM | > 100 µM | > 100 µM | > 100 µM | > 100 µM |
| Cc1ccc2c(c1)C(=O)c1ccc(C)nc1C2=O | 37.6 µM | > 100 µM | 31.4 µM | > 100 µM | 48.9 µM | 83.2 µM | 58.9 µM | 92.8 µM | > 100 µM | > 100 µM | > 100 µM | > 100 µM | > 100 µM | > 100 µM | > 100 µM | 67.3 µM | > 100 µM |
| COc1ccc(N=C/C=C/C(=C/COC(C)=O)OC(C)=O)cc1 | > 100 µM | 48.1 µM | 43.8 µM | > 100 µM | 87.2 µM | 45.1 µM | 91.7 µM | > 100 µM | > 100 µM | 65.9 µM | > 100 µM | > 100 µM | > 100 µM | 98.5 µM | 34.4 µM | > 100 µM | 86 µM |
| O=Cc1cc(O)ccc1Br | 9.77 µM | > 93.2 µM | 25.6 µM | > 100 µM | > 91.1 µM | > 100 µM | 71 µM | > 83.4 µM | > 81.6 µM | > 100 µM | > 100 µM | > 78.4 µM | > 100 µM | 5.39 µM | 60 µM | > 76.2 µM | > 100 µM |
| C/C(O)=C/c1nc2sc(C)c(C)c2c(=O)s1 | > 100 µM | 65.1 µM | > 100 µM | > 100 µM | > 100 µM | > 100 µM | > 100 µM | > 100 µM | > 100 µM | > 100 µM | > 100 µM | 69.5 µM | > 100 µM | > 100 µM | > 100 µM | > 100 µM | > 100 µM |
| COc1ccc(C(c2ccccc2)N2C(=O)CCC2C(=O)O)cc1OC (centres undefined) | > 100 µM | > 100 µM | > 100 µM | > 100 µM | > 100 µM | > 100 µM | > 100 µM | > 100 µM | > 100 µM | > 100 µM | > 100 µM | > 100 µM | > 100 µM | > 100 µM | > 100 µM | > 100 µM | > 100 µM |
| CC1(C)O[C@@H]([C@@H](O)[C@H](O)C2SCCCS2)[C@@H](CO)O1 | > 100 µM | > 100 µM | > 100 µM | > 100 µM | > 100 µM | > 100 µM | > 100 µM | > 100 µM | > 100 µM | > 100 µM | > 100 µM | > 100 µM | > 100 µM | > 100 µM | > 100 µM | > 100 µM | > 100 µM |
| COC(=O)/C=C1/OC(c2ccccc2)=CC1=O | 35.5 µM | 47.9 µM | 34.1 µM | > 62.2 µM | > 52.7 µM | 33.9 µM | 42.9 µM | 32 µM | 32.4 µM | > 58 µM | 30.9 µM | 40.2 µM | > 82.9 µM | 6.14 µM | > 56 µM | 58.7 µM | 44.7 µM |
| COC(=O)/C=C(\S/C(=C(/c1ccccc1)n1cc(C(=O)OC)c(C(=O)OC)n1)c1ccccc1)C(=O)OC | 32.9 µM | 35.8 µM | 37.9 µM | 32.1 µM | 23.9 µM | 31.9 µM | 38 µM | 98.7 µM | > 100 µM | 60.4 µM | 95.2 µM | 32.2 µM | 62.6 µM | 12.6 µM | 10.6 µM | 89.1 µM | 32.8 µM |
| COC(=O)[C@@H](COC(=O)/C=C/c1ccc(OC(C)=O)c(OC(C)=O)c1)NC(=O)/C=C/c1ccc(OC(C)=O)c(OC(C)=O)c1 | > 100 µM | 55.4 µM | 50.3 µM | 71.5 µM | > 100 µM | > 100 µM | > 100 µM | > 100 µM | 94.6 µM | > 100 µM | > 100 µM | > 100 µM | > 100 µM | > 100 µM | > 100 µM | > 100 µM | > 100 µM |
| Cc1cc2c(cc1-c1cc3c(cc1C)C(C(C)C)=C(O)C(=O)/C3=C\Nc1cccc3c(N)cccc13)/C(=C/Nc1cccc3c(N)cccc13)C(=O)C(O)=C2C(C)C | > 100 µM | > 100 µM | > 100 µM | > 100 µM | > 100 µM | > 100 µM | > 100 µM | > 100 µM | > 100 µM | > 100 µM | > 100 µM | > 100 µM | > 100 µM | > 100 µM | > 100 µM | > 100 µM | > 100 µM |
| Nc1nc(Cl)c(N)c(NCC2(CO)CC(O)C2)n1 (centres undefined) | > 100 µM | > 100 µM | > 100 µM | > 100 µM | > 100 µM | > 100 µM | > 100 µM | > 100 µM | > 100 µM | > 100 µM | > 100 µM | > 100 µM | > 100 µM | > 100 µM | > 100 µM | > 100 µM | > 100 µM |
